One data set relates to LS174T cells. The data set is described as follows: fluorescent staining of cellular and intracellular membranes, confocal microscopy. The format is cell-based. Here is the method: Monolayer cultures were grown in RPMI 1640 medium (Gibco) supplemented with 10% fetal bovine serum (FBS) (Gibco), 1% L-glutamine (Gibco), 1% penicillin/streptomycin (Gibco) as an antibacterial agent and 0.1% amphotericin (Sigma) as an antifungal agent. The cultures were maintained at 37° C. in a CO2 incubator with humidified atmosphere, 5% CO2 and 95% air. Confluent cultures (80-90%) were used for experiments. The cells were then detached by trypsinization and incubation at 37° C. for 2-3 minutes. Fresh medium (10× to trypsin's volume) was added to inhibit trypsin action. The cell suspension was centrifuged at 500 g for three minutes. The supernatant was discarded and the pellet obtained was resuspended in fresh medium. Cells were counted and seeded onto sterile glass cover slips at 5×10^4 cells per slip and incubated overnight to adhere. ZnTnHex-4-PyPCl4 was added and the cells were incubated with the compound in the dark. The cells were then fixed with ice cold absolute ethanol added to a final concentration of 60%, and the plate containing the slips was kept on ice for 10 minutes. The cells were washed with PBS twice and the slips were transferred onto microscopic slides. Vectashield mounting medium from Vector Laboratories was used. The slides were examined using a Zeiss LSM 510 META confocal fluorescence microscope fitted with standard FITC, Rhodamine and DAPI filter sets.
LS174T cells were counted and seeded onto sterile glass cover slips at 5×10^4 cells per slip and incubated over-night to adhere. The dye was added to a final concentration of 0.5-2.5 μM and the cells were incubated with ZnTnHex-4-PyPCl4 in the dark for 15-30 minutes. The cells were then fixed with ice cold absolute ethanol added to a final concentration of 60%, and the plate containing the slips was kept on ice for 10 minutes. The cells were washed with PBS twice and the slips were transferred onto microscopic slides. […] The slides were examined using a Zeiss LSM 510 META confocal fluorescence microscope fitted with standard FITC, Rhodamine and DAPI filter sets.

In another data set the test system is cells. The data set is described as follows: harm to cells incubated with the fluorescent probe. The following applies: 20 μM, shielded from light.
Data set [1] can be described thus: storage stability of sterilized probe. The following applies: refrigerated in the dark.

Each structure is given as a SMILES string.

Consider `CCCCCC[n+]1ccc(C2=C3C=CC4=[N+]3[Zn]35[n]6c2ccc6C(c2cc[n+](CCCCCC)cc2)=C2C=CC(=[N+]23)C(c2cc[n+](CCCCCC)cc2)=c2ccc([n]25)=C4c2cc[n+](CCCCCC)cc2)cc1` [ZnTnHex-4-PyPCl4, Zn(II) meso-tetrakis(N-n-hexylpyridinium-4-yl)porphyrin tetrachloride], for which, in the data set with LS174T cells (LSI74T cells, 20 μM, 24 hours pre-incubation in the dark, FIG. 2), the subcellular localization result was “mitochondria, lysosomes, the ER and the plasma membrane”. In the data set with LS174T cells (concentrations as low as about 0.5-2.5 μM), the “time to stain cellular and intracellular membranes” value is not above 15 min. The “concentration needed for staining membranes” value with LS174T cells (living mammalian cells) is 0.5 to 1 µM. Also, the harm to cells entry in the data set with cells is recorded as “without harming cells”. In addition, in “solubility”, the solubility in water result is reported as “water soluble”. For the same compound, the storage stability entry in data set [1] is recorded as “kept for months”.

Values taken from US9034596B1, “Method for fluorescent staining of cellular and intracellular membranes” (KUWAIT UNIVERSITY, priority 2014, dated 2015).
